Measured values: PMC10117725, “From an Hsp90 - binding protein to a peptide drug” (microLife, 2022)

What was measured:
Hsp90α = target: T1, Hsp90α (Homo sapiens, UniProt P07900); assay type: binding; conditions: dot blot, 2 µg blotted on membrane, 20 µg recombinant Hsp90α at 4°C overnight, α-Hsp90α immunodetection
T1 construct: purchased Abcam
Description: Two µg of each peptide was blotted (dot blot) directly on PDV nitrocellulose membrane and blocked with ROTI®Block (Carl Roth, Germany). After washing, the membrane was then incubated with 20 μg of recombinant Hsp90α (Abcam)/Lpl1-his protein at 4°C overnight. In case of interaction studies with Hsp90α, α-Hsp90α (produced in mouse, Abcam) was used as the primary antibody and for interaction studies with Lpl1-his, Anti-6X His tag antibody (also produced in mouse, Sigma-Aldrich, Germany) was used. Alkaline phosphatase conjugated goat-α-mouse IgG (Sigma-Aldrich, Germany) served as the secondary antibody. Detection was done using BCIP®/NBT solution (Sigma, Germany). Lpl1-his was isolated and purified as described in our previous paper (Tribelli et al. [2020]).

[1] = system: F-actin levels in HaCaT cells; assay: F-actin measurement (ActinGreen 488 fluorescence) in HaCaT cells; assay type: cell-based, human; conditions: 35 µg/ml peptide (L15 20 µM, L13 30 µM), geldanamycin 5 µM; 1.5 h; ActinGreen 488 fluorescence relative to control
Description: (§1) About 5 × 10^4 cells were seeded in black flat bottom 96 well cell culture microplate (Greiner, Germany) and incubated overnight. The cells were then incubated with peptides or geldanamycin for 1.5 h. After incubation, the cells were washed, permeabilised with 0.1% (v/v) Triton X-100 and stained with ActinGreen™ 488 ReadyProbes® (Thermo Fischer, Germany) for 30 min. After the staining, the cells were washed and measure for its fluorescence at Excitation/Emission: 495/518 nm (Luqman et al. [2020]).

HaCaT cells = assay: MTT cytotoxicity in HaCaT cells; assay type: cell-based, human; conditions: MTT, 24 h, 1–200 µM
Description: (§2) MTT (3-(4,5-dimethylthiazol-2-yl)-2,5-diphenyl tetrazolium bromide) assay was employed to analyze the cytotoxicity of peptides and geldanamycin to the cells. 5 × 10^5 cells were seeded in a 96 flat bottom well plate and incubated for 2.5 or 24 h at 37°C with 5% CO2. The cells were then treated with increasing concentration (0 to 200 µM) of peptides or geldanamycin for 24 h. After the incubation, 10 μl of the MTT labelling reagent is added to each well to attain a final concentration 0.5 mg/ml, followed by 4 h incubation. Metabolically active cells convert the yellow tetrazolium salt to purple formazan crystals, which were solubilized using the solubilization solution (DMSO) and measured for absorbance at λmax/λref–570/690 nm (Saising et al. [2018]).

[2] = system: S. aureus USA300 internalization by HaCaT cells; assay: S. aureus USA300 invasion (internalization) into HaCaT keratinocytes; assay type: cell-based, human
Description: The invasion protocol was adapted from our previous papers (Nguyen et al. [2015], Tribelli et al. [2020]). About 5 × 10^5 Keratinocytes were seeded in a 24 well plate (Greiner, Frickenhausen, Germany) to attain a monolayer of ∼10^6 cells/well. Staphylococcusaureus was grown overnight at 37°C, centrifuged and suspended in invasion medium (DMEM with 10% FBS for HaCaT and K-SFM for NTERT-1 cells). The adherent keratinocytes were […], or 5 µM geldanamycin (Sigma-Aldrich, Germany) or monoclonal antibodies specific against Hsp90α (α‐Hsp90α, Abcam) for 1 h. After 1 h, 100 µl of bacterial suspension was added to each well to attain a MOI (multiplicity of infection) of 30 and incubated with cells for 1.5 h. Subsequently, the extracellular bacteria were killed with treatment of 2.5 μg/ml lysostaphin (Sigma-Aldrich, Germany) for 1.5 h. The cells were then washed, lysed, mechanically detached by scraping, diluted, and enumerated on TSA (Tryptic Soy Agar) plates to quantify the intracellular bacteria.

[3] = system: S. aureus USA300 invasion into N/TERT-1 cells; assay: S. aureus USA300 invasion into N/TERT-1 keratinocytes; assay type: cell-based, human; conditions: pretreatment with L15 20 µM, L13 30 µM, geldanamycin 5 µM or α-Hsp90α antibody
Description: The invasion protocol was adapted from our previous papers (Nguyen et al. [2015], Tribelli et al. [2020]). About 5 × 10^5 Keratinocytes were seeded in a 24 well plate (Greiner, Frickenhausen, Germany) to attain a monolayer of ∼10^6 cells/well. Staphylococcusaureus was grown overnight at 37°C, centrifuged and suspended in invasion medium (DMEM with 10% FBS for HaCaT and K-SFM for NTERT-1 cells). The adherent keratinocytes were washed with PBS and supplemented with invasion medium followed by treatment with 20 µM of L15, 30 µM of L13, or 5 µM geldanamycin (Sigma-Aldrich, Germany) or monoclonal antibodies specific against Hsp90α (α‐Hsp90α, Abcam) for 1 h. After 1 h, 100 µl of bacterial suspension was added to each well to attain a MOI (multiplicity of infection) of 30 and incubated with cells for 1.5 h. Subsequently, the extracellular bacteria were killed with treatment of 2.5 μg/ml lysostaphin (Sigma-Aldrich, Germany) for 1.5 h. The cells were then washed, lysed, mechanically detached by scraping, diluted, and enumerated on TSA (Tryptic Soy Agar) plates to quantify the intracellular bacteria.

[4] = system: Galleria mellonella larvae; assay: Toxicity of tested doses to Galleria mellonella larvae
Description: (§3) Galleria mellonella larvae, purchased from Feeders & more GmbH, Germany, were sorted based on weight and used within one week. Ten larvae per group with weight average of 500 mg/larvae were injected with bacteria and/or peptides on its last proleg using a BD insulin syringe. The dosage used for the experiment were 60 mg/kg for peptides, 5 mg/kg of geldanamycin and 20 mg/kg for vancomycin. Each larva was injected with 10 µl of L15 (last left proleg) 1 h before administration of 10^6 cfu S. aureus (last right proleg). The larvae were maintained at 37°C and observed for mortality every day over the course of 5 days.

S. aureus Newman = assay: Galleria mellonella larvae infection model, S. aureus Newman; assay type: in vivo
Description: as §3

[5] = system: F-actin levels in N/TERT-1 cells; assay: F-actin measurement (ActinGreen 488 fluorescence) in N/TERT-1 cells; assay type: cell-based, human; conditions: L15 20 µM, L13 30 µM, geldanamycin 5 µM; 1.5 h; relative to control
Description: as §1

MONO-MAC-6 (MM6) cells = assay: MTT cytotoxicity in MM6 cells; assay type: cell-based, human; conditions: 24 h, 1–200 µM
Description: as §2

[6] = system: phagocytosis by primary human CD14+ monocytes; assay: Phagocytosis of S. aureus USA300 by CD14+ monocytes; assay type: cell-based; conditions: L15 20 µM, L13 30 µM, geldanamycin 5 µM, 60 min preincubation; MOI 30, 90 min; n = 4 donors; SEM
Description: Peripheral Blood Mononuclear cells (PBMCs) were isolated by density gradient centrifugation following the previous study (Nguyen et al. [2022]). From the pool of PBMCs, monocytes were isolated by positive selection with anti-human CD14 microbeads (Miltenyi Biotech, Bergisch-Gladbach, Germany) following a previously reported protocol (Nguyen et al. [2022]). The purity was analysed by flow cytometry on a BD Accuri C6 (BD Biosciences, Heidelberg, Germany) with anti-human CD14-FITC, CD45-PE and propidium iodide (BD Biosciences, Heidelberg, Germany) and ranged from 85% to 98%.
For the phagocytosis, 10^6 CD14^+ monocytes were seeded in 1 ml of medium (RPMI supplemented with L-Glutamine and 10% FCS) in a 12 well plate (Greiner, Germany). The cells were incubated with 20 µM of L15, 30 µM of L13, or 5 µM of Geldanamycin for 60 min at 37°C and 5% CO2 before addition of bacteria. For the phagocytosis assay, bacterial cells were resuspended in 100 µl RPMI medium at MOI of 30 and incubated with monocytes for 90 min. The cells were washed once with PBS and 0.5 ml of medium supplemented with 2.5 µg/ml of Lysostaphin was added for 90 min to remove the extracellular bacteria. Then, monocytes were washed twice with PBS and resuspended in 0.5 ml of milliQ dH2O. The cells were scraped, and the lysed solution was transferred into a new 1.5 ml Eppendorf tube for a 5 min sonication (frequency 80, power 100) at room temperature to prevent the bacterial cell clumping by using ultrasonic water bath Elmasonic P (Elma Schmidbauer Gmb, Singen, Germany). About 10 µl fractions of undiluted, 10^−1, 10^−2, and 10^−3 dilutions were inoculated on tryptic soy agar (TSA) plates and incubated overnight at 37°C. The numbers of internalized bacteria were determined based on the manual counting of bacterial colony forming units (cfu) recovered on the agar plates.

[7] = system: S. aureus USA300 infected PBMCs; assay: Cytokine release of S. aureus USA300 infected PBMCs (ELISA); assay type: cell-based, human; conditions: L15 20 µM, L13 30 µM, geldanamycin 5 µM, 20 h, vs unstimulated infected PBMCs

Molecule: GKGNETKED [L1, Lpl1-derived peptide]
- Interaction with Hsp90α (Hsp90α): No
- Relative F-actin level in HaCaT [1]: 0.95 ± 0.49

Molecule: COC1=C2C[C@@H](C)C[C@H](OC)[C@H](O)[C@@H](C)/C=C(\C)[C@H](OC(N)=O)[C@@H](OC)/C=C\C=C(/C)C(=O)NC(=CC1=O)C2=O [Geldanamycin, geldanamycin, reference compound]
- concentration from which viability decreased gradually, HaCaT (HaCaT cells): ≥ 50 µM
- decrease in uptake/invasion of S. aureus USA300 by HaCaT cells compared to untreated control ([2]; preincubation with L15 20 µM, L13 30 µM, geldanamycin 5 µM or α-Hsp90α antibody, MOI 30): approximately 75%
- invasion of S. aureus USA300 into N/TERT-1 cells [3]: reduced USA300 invasion
- toxicity of tested doses to larvae ([4]; in vivo): not toxic to larvae
- effect on survival of infected larvae (S. aureus Newman; geldanamycin 5 mg/kg 1 h before infection, strain not restated in the sentence): no or rather a negative effect on survival
- relative F-actin content in N/TERT-1 cells [5]: 0.82 ± 0.03
- concentration from which viability decreased, MM6 (MONO-MAC-6 (MM6) cells): ≥ 10 µM
- decrease of phagocytosis of S. aureus into CD14+ monocytes [6]: no significant impact
- Relative F-actin level in HaCaT [1]: 0.88 ± 0.03
- TNF-alpha production of infected PBMCs ([7]; n = 4): inhibited
- IL-6 production of infected PBMCs ([7]; n = 5): inhibited

Molecule: DEIVKELRSRYNISTEKSPILKMHIDGDLKGSSVGYRKLEI DFSKRENSKLSVIEFLSYKPAKK [L26, Lpl1-derived peptide that increased S. aureus internalization]
- increase of invasion into HaCaT ([2]; positive control peptides, S. aureus USA300): approximately 1.5 fold
- Interaction with Hsp90α (Hsp90α): Yes
- Relative F-actin level in HaCaT [1]: 1.25 ± 0.13

Molecule: NKPGEL [L8, Lpl1-derived peptide]
- Interaction with Hsp90α (Hsp90α): No
- Relative F-actin level in HaCaT [1]: 0.96 ± 0.05

Molecule: CN[C@H](CC(C)C)C(=O)N[C@H]1C(=O)N[C@@H](CC(N)=O)C(=O)N[C@H]2C(=O)N[C@H]3C(=O)N[C@H](C(=O)N[C@H](C(=O)O)c4cc(O)cc(O)c4-c4cc3ccc4O)[C@H](O)c3ccc(c(Cl)c3)Oc3cc2cc(c3O[C@@H]2O[C@H](CO)[C@@H](O)[C@H](O)[C@H]2O[C@H]2C[C@](C)(N)[C@H](O)[C@H](C)O2)Oc2ccc(cc2Cl)[C@H]1O [vancomycin, reference compound]
- toxicity of tested doses to larvae ([4]; peptides 60 mg/kg, geldanamycin 5 mg/kg, vancomycin 20 mg/kg): not toxic to larvae
- larvae surviving on day 5, S. aureus Newman (S. aureus Newman; peptides 60 mg/kg, vancomycin 20 mg/kg, injected 1 h before 10^6 cfu, 37°C): 100%

Molecule: EMKNNKIIL [L17, Lpl1-derived peptide]
- Interaction with Hsp90α (Hsp90α): No
- Relative F-actin level in HaCaT [1]: 1.09 ± 0.20
